This note sets out measurements from patent US20090118363A1, “SESAMIN-CLASS COMPOUND-CONTAINING FOODS OR BEVERAGES FOR ANIMALS” (priority 2006, published 2009).

Molecules are shown by their SMILES.

The data set in a line: Test of dissolving sesamin-class compounds into fats and oils (solubility). The data set is classed as physicochemical. The protocol:
Solubility of sesamin-class compounds to various fats and oils was determined. Sesamin, episesamin, and a mixture of sesamin and episesamin, sesamin:episesamin=51.1:48.2 (Takemoto Oil and Fat Co., Ltd.), were used as the sesamin-class compounds. The sesamin and the episesamin were prepared by isolating them from the mixture and purifying them. The respective sesamin-class compounds were dissolved into five different kinds of fats and oils, 100 g each, shown in Table 1 to determine a limit amount (solubility) of the respective sesamin-class compounds that can be dissolved completely. It is understood from Table 1 that the sesamin, the episesamin, and the mixture of the sesamin and the episesamin have different solubilities, and that the solubility varies in a manner that depends on the types of the fats and oils.

For `c1cc2c(cc1[C@H]1OC[C@H]3[C@@H]1CO[C@@H]3c1ccc3c(c1)OCO3)OCO2` [SESAMIN, sesamin], the “Solubility in fats and oils: DG” value worked out at 1.25%; the “Solubility in fats and oils: MCT-1” value stood at 4.0%; the “Solubility in fats and oils: MCT-2” value amounted to 2.0%; the “Solubility in fats and oils: olive oil” value stood at 0.75%. Further, the “Solubility in fats and oils: wheatgerm oil” value is on record as 0.75%.
As to `c1cc2c(cc1[C@H]1OC[C@H]3[C@@H]1CO[C@@H]3c1ccc3c(c1)OCO3)OCO2` [EPISESAMIN, episesamin], the “Solubility in fats and oils: DG” value turned out to be 1.0%; the “Solubility in fats and oils: MCT-1” value was 2.5%; the “Solubility in fats and oils: MCT-2” value is given as 2.5%; the “Solubility in fats and oils: olive oil” value amounted to 0.5%. Moreover, the “Solubility in fats and oils: wheatgerm oil” value came to 0.75%.
